Activity calls are given as the source filed them. The calls are words filed in the database; no cut-off is given here.

From ChEMBL document CHEMBL6115031, “Structure-Based Optimization of Moracin M as Potent and Selective PDE4 Inhibitors with Antipsoriasis Effects” (J Med Chem, 2025) come the findings set out here.

In series [1] the test system is Mus musculus. Kind of series: Anti-psoriasis effect in female BALB/c mouse model assessed as reduction in K17 protein expression at 20 mg/kg administered topically as 0.3 % ointment pretreated with IMQ for 6 hrs followed by compound addition once daily for 7 days by Western blotting analysis. Format: functional, organism-based. The conditions noted are these: time 7.0 day. (In western blotting, separated proteins are transferred to a membrane and probed.)

Series [2] has as its system RAW264.7. In words: Anti-inflammatory activity in LPS-stimulated mouse RAW264.7 cells assessed as reduction in IL-6 mRNA level pretreated with compound for 2 hrs followed by LPS stimulation and measured after 6 hrs by q-PCR analysis. Format: functional, cell-based. The note with it: dose 5-20 µM, time 8.0 hrs.
The test system of series [3] is HaCaT. Kind of series: Cytotoxicity against human HaCaT cells assessed as reduction in cell viability at 5 to 80 uM incubated for 24 hrs by CCK-8 assay. It is filed as toxicity, cell-based. The note with it: dose 5-80 µM. (Tetrazolium dyes change colour on reduction, which living cells bring about.)
The test system of series [4] is Mus musculus. In words: Anti-psoriasis effect in IMQ-induced female BALB/c mouse model assessed as reduction in abnormal rete ridges at 20 mg/kg administered topically as 0.3 % ointment pretreated with IMQ for 6 hrs followed by compound addition once daily for 7 days by H and E staining based analysis. It is filed as functional, organism-based. The note with it: time 7.0 day.

In series [5] the test system is Mus musculus. In words: Anti-psoriasis effect in female BALB/c mouse model assessed as reduction in K6 protein expression at 20 mg/kg administered topically as 0.3 % ointment pretreated with IMQ for 6 hrs followed by compound addition once daily for 7 days by Western blotting analysis. It is filed as functional, organism-based. The conditions noted are these: time 7.0 day.

The test system of series [6] is Mus musculus. In words: Anti-inflammatory activity in IMQ-induced psoriasis in female BALB/c mouse assessed as reduction in CCL-20 mRNA level at 20 mg/kg administered topically as 0.3 % ointment pretreated with IMQ for 6 hrs followed by compound addition once daily for 7 days by q-PCR analysis. It is filed as functional, organism-based. The conditions noted are these: time 7.0 day.

Series [7] concerns the target 3',5'-cyclic-AMP phosphodiesterase 4D (Homo sapiens, UniProt Q08499). Kind of series: Inhibition of human PDE4D2 (86 to 413 residues) extracted from Escherichia coli BL21 cells using 3H-cAMP/3H-cGMP as substrate preincubated with compound for 15 mins followed by substrate addition by liquid scintillation counter.
In series [8] the test system is Mus musculus. Kind of series: Anti-psoriasis effect in IMQ-induced female BALB/c mouse assessed as reduction in psoriasis area at 20 mg/kg administered topically as 0.3 % ointment pretreated with IMQ for 6 hrs followed by compound addition once daily for 7 days. It is filed as functional, organism-based. The note with it: time 7.0 day.
Series [9] has as its system RAW264.7. In words: Anti-inflammatory activity in LPS-stimulated mouse RAW264.7 cells assessed as reduction in IL-1beta mRNA level pretreated with compound for 2 hrs followed by LPS stimulation and measured after 6 hrs by q-PCR analysis. It is filed as functional, cell-based. The conditions noted are these: dose 5-20 µM, time 8.0 hrs.
The test system of series [10] is Mus musculus. In words: Anti-psoriasis effect in IMQ-induced female BALB/c mouse assessed as change in body weight at 20 mg/kg administered topically as 0.3 % ointment pretreated with IMQ for 6 hrs followed by compound addition once daily for 7 days. The conditions noted are these: time 7.0 day. It is filed as functional, organism-based.
Series [11] concerns Mus musculus. In words: Anti-psoriasis effect in IMQ-induced female BALB/c mouse model assessed as reduction in spinous layer thickness at 20 mg/kg administered topically as 0.3 % ointment pretreated with IMQ for 6 hrs followed by compound addition once daily for 7 days by H and E staining based analysis. It is filed as functional, organism-based. The conditions noted are these: time 7.0 day.

For series [12], the system named is Mus musculus. In words: Anti-psoriasis effect in female BALB/c mouse model assessed as increase in K1 protein expression at 20 mg/kg administered topically as 0.3 % ointment pretreated with IMQ for 6 hrs followed by compound addition once daily for 7 days by Western blotting analysis. Format: functional, organism-based. The conditions noted are these: time 7.0 day.

For series [13], the system named is Mus musculus. In words: Anti-psoriasis effect in IMQ-induced female BALB/c mouse assessed as decrease in skin scales at 20 mg/kg administered topically as 0.3 % ointment pretreated with IMQ for 6 hrs followed by compound addition once daily for 7 days. Format: functional, organism-based. The note with it: time 7.0 day.
Series [14] concerns the target cAMP and cAMP-inhibited cGMP 3',5'-cyclic phosphodiesterase 10A (Homo sapiens, UniProt Q9Y233). In words: Inhibition of PDE10A2 (449 to 770 residues) (unknown origin) extracted from Escherichia coli BL21 cells using 3H-cAMP/3H-cGMP as substrate preincubated with compound for 15 mins followed by substrate addition by liquid scintillation counter.
Series [15] has as its system Mus musculus. Kind of series: Anti-psoriasis effect in IMQ-induced female BALB/c mouse assessed as reduction in severity of skin erythema at 20 mg/kg administered topically as 0.3 % ointment pretreated with IMQ for 6 hrs followed by compound addition once daily for 7 days. Format: functional, organism-based. The note with it: time 7.0 day.
Series [16] has as its system Mus musculus. In words: Anti-psoriasis effect in IMQ-induced female BALB/c mouse assessed as reduction in skin thickness at 20 mg/kg administered topically as 0.3 % ointment pretreated with IMQ for 6 hrs followed by compound addition once daily for 7 days. It is filed as functional, organism-based. The note with it: time 7.0 day.
The test system of series [17] is Mus musculus. In words: Anti-inflammatory activity in IMQ-induced psoriasis in female BALB/c mouse assessed as reduction in IL-1beta mRNA level at 20 mg/kg administered topically as 0.3 % ointment pretreated with IMQ for 6 hrs followed by compound addition once daily for 7 days by q-PCR analysis. Format: functional, organism-based. The conditions noted are these: time 7.0 day.

Series [18] in a line: Drug absorption in rat skin assessed as skin permeability by measuring steady-state transdermal flux administered topically as 0.3% ointment at 100 mg by HPLC analysis. The note with it: in vivo, topical_or_ocular. It is filed as ADME, tissue-based, Skin of body.
Series [19] in a line: Drug absorption in rat skin assessed as skin permeability by measuring cumulative transdermal amount per unit area administered topically as 0.3% ointment at 100 mg by HPLC analysis. It is filed as ADME, tissue-based, Skin of body. The note with it: in vivo, topical_or_ocular.

Sequence of cAMP and cAMP-inhibited cGMP 3',5'-cyclic phosphodiesterase 10A (Q9Y233 whole entry, the tested form may be a part): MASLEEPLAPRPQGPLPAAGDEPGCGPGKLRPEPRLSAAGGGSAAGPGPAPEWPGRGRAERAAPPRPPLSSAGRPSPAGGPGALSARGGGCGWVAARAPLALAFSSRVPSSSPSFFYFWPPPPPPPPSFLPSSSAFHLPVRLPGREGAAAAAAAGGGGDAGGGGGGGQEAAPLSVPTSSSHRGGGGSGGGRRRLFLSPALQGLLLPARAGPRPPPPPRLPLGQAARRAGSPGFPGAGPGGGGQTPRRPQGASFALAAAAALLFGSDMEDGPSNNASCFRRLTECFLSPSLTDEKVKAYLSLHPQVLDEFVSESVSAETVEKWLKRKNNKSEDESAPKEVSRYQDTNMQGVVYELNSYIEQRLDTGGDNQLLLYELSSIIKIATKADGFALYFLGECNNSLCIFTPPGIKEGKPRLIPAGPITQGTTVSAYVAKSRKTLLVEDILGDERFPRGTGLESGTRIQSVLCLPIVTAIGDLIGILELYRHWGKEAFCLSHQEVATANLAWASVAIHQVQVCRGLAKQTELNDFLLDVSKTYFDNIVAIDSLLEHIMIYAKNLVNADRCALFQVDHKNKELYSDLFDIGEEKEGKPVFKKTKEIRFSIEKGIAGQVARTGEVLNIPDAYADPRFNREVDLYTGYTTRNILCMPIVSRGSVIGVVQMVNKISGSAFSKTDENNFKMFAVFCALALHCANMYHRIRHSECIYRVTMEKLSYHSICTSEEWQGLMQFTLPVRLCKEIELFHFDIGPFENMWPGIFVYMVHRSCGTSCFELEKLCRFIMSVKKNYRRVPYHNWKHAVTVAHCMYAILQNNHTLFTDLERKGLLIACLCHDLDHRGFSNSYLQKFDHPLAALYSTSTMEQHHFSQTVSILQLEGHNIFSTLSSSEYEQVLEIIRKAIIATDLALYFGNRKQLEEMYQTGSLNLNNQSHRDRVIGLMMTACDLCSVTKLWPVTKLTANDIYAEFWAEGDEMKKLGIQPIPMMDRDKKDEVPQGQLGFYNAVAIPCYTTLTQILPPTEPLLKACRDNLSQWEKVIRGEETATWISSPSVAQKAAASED
Sequence of 3',5'-cyclic-AMP phosphodiesterase 4D (Q08499 whole entry, the tested form may be a part): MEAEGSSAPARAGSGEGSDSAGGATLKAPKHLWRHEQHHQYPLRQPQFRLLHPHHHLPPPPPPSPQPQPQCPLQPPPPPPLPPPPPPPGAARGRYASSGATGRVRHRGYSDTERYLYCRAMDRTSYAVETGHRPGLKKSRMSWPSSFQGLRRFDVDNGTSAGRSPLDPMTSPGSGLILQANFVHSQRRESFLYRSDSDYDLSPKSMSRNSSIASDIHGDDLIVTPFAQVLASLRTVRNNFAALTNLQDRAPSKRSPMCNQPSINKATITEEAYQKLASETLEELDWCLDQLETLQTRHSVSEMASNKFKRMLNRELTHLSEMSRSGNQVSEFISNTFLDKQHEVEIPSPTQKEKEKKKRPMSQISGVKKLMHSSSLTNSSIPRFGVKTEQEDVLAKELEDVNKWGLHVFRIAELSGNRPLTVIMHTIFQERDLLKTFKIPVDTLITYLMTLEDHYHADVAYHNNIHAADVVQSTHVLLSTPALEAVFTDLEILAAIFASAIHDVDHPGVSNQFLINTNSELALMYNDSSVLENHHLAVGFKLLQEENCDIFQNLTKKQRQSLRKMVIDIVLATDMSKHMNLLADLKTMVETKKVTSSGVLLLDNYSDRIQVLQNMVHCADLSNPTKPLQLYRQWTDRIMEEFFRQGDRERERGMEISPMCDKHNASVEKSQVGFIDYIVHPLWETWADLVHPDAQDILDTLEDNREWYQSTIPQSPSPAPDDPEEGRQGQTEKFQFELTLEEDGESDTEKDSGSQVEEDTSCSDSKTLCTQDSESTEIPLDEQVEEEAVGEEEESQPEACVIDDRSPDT

With `COC(=O)[C@H]1C[C@@H](Oc2c(O)ccc3cc(-c4ccc(OC(F)F)c(OCC5CC5)c4)oc23)CN1`, the result in series [1], in [4], in [5], in series [6], in series [8] and in series [10] was Active. Besides, the result in [11], in series [12], in series [13], in series [15], in [16] and in series [17] was Active. Moreover, the figures for the Activity result in series [2], in series [3] and in series [9] were “Dose-dependent-effect”, “Non-toxic” and “Dose-dependent-effect”, respectively. The IC50 was 0.0086 µM in series [7] and 1.95 µM in series [14]. Besides, in series [18], the Jss was determined as 0.43 ug/cm2.hr. In series [19], the Drug absorption came to 15.78 microg/cm2.

The term IC50 denotes the midpoint of a concentration-inhibition curve.
